# Calls of active or inactive are those of the source. The calls are words filed in the database; no cut-off is given here.
# Legend:
# Amaranthus retroflexus [1] = test: Post-emergence herbicidal activity against one-leaf stage Amaranthus retroflexus under greenhouse condition assessed as complete bleaching of leaves at 300 g /ha measured after 24 days by spray method; type: functional, organism-based
# Amaranthus retroflexus [2] = test: Post-emergence herbicidal activity against one-leaf stage Amaranthus retroflexus under greenhouse condition at 30 g /ha measured after 24 days by spray method; type: functional; conditions: 576 h, read-out: GI
# Amaranthus retroflexus [3] = test: Post-emergence herbicidal activity against one-leaf stage Amaranthus retroflexus under greenhouse condition at 60 g /ha measured after 24 days by spray method; type: functional; conditions: 576 h, read-out: GI
# [4] = tested on: Brassica rapa subsp. oleifera; test: Post-emergence herbicidal activity against one-leaf stage Brassica rapa subsp. oleifera under greenhouse condition at 750 g /ha measured after 24 days by spray method; type: functional; conditions: 576 h, read-out: GI
# [5] = tested on: Brassica rapa subsp. oleifera; test: Post-emergence herbicidal activity against one-leaf stage Brassica rapa subsp. oleifera under greenhouse condition at 7.5 g /ha measured after 24 days by spray method; type: functional; conditions: 576 h, read-out: GI
# Amaranthus retroflexus [6] = test: Post-emergence herbicidal activity against one-leaf stage Amaranthus retroflexus under greenhouse condition assessed as complete bleaching of leaves at 7.5 g /ha measured after 24 days by spray method; type: functional, organism-based
# [7] = tested on: Brassica rapa subsp. oleifera; test: Pre-emergence herbicidal activity against Brassica rapa subsp. oleifera under greenhouse condition at 750 g /ha measured after 24 days by spray method; type: functional; conditions: 576 h, read-out: GI
# Amaranthus retroflexus [8] = test: Post-emergence herbicidal activity against one-leaf stage Amaranthus retroflexus under greenhouse condition at 300 g /ha measured after 24 days by spray method; type: functional; conditions: 576 h, read-out: GI
# [9] = tested on: Brassica rapa subsp. oleifera; test: Post-emergence herbicidal activity against one-leaf stage Brassica rapa subsp. oleifera under greenhouse condition at 75 g /ha measured after 24 days by spray method; type: functional; conditions: 576 h, read-out: GI
# [10] = tested on: Brassica rapa subsp. oleifera; test: Post-emergence herbicidal activity against one-leaf stage Brassica rapa subsp. oleifera under greenhouse condition assessed as complete bleaching of leaves at 30 g /ha measured after 24 days by spray method; type: functional, organism-based
# Digitaria [11] = test: Post-emergence herbicidal activity against one-leaf stage of Digitaria adscendens under greenhouse condition at 750 g /ha measured after 24 days by spray method; type: functional; conditions: in Digitaria adscendens, 576 h, read-out: GI
# [12] = tested on: Brassica rapa subsp. oleifera; test: Post-emergence herbicidal activity against one-leaf stage Brassica rapa subsp. oleifera under greenhouse condition at 600 g /ha measured after 24 days by spray method; type: functional; conditions: 576 h, read-out: GI
# Amaranthus retroflexus [13] = test: Post-emergence herbicidal activity against one-leaf stage Amaranthus retroflexus under greenhouse condition assessed as complete bleaching of leaves at 15 g /ha measured after 24 days by spray method; type: functional, organism-based
# Amaranthus retroflexus [14] = test: Post-emergence herbicidal activity against one-leaf stage Amaranthus retroflexus under greenhouse condition assessed as complete bleaching of leaves at 75 g /ha measured after 24 days by spray method; type: functional, organism-based
# Digitaria [15] = test: Pre-emergence herbicidal activity against Digitaria adscendens under greenhouse condition at 750 g /ha measured after 24 days by spray method; type: functional; conditions: in Digitaria adscendens, 576 h, read-out: GI
# Amaranthus retroflexus [16] = test: Pre-emergence herbicidal activity against Amaranthus retroflexus under greenhouse condition at 750 g /ha measured after 24 days by spray method; type: functional; conditions: 576 h, read-out: GI
# [17] = tested on: Brassica rapa subsp. oleifera; test: Post-emergence herbicidal activity against one-leaf stage Brassica rapa subsp. oleifera under greenhouse condition assessed as complete bleaching of leaves at 150 g /ha measured after 24 days by spray method; type: functional, organism-based
# [18] = tested on: Brassica rapa subsp. oleifera; test: Post-emergence herbicidal activity against one-leaf stage Brassica rapa subsp. oleifera under greenhouse condition assessed as complete bleaching of leaves at 15 g /ha measured after 24 days by spray method; type: functional, organism-based
# Echinochloa crus-galli [19] = test: Post-emergence herbicidal activity against one-leaf stage of Echinochloa crus-galli (barnyard grass) under greenhouse condition at 750 g /ha measured after 24 days by spray method; type: functional; conditions: 576 h, read-out: GI
# Amaranthus retroflexus [20] = test: Post-emergence herbicidal activity against one-leaf stage Amaranthus retroflexus under greenhouse condition at 75 g /ha measured after 24 days by spray method; type: functional; conditions: 576 h, read-out: GI
# Spirodela polyrhiza [21] = test: Bleaching herbicidal activity in Spirodela polyrhiza fronds cultured in compound-containing in medium assessed as chlorophyll inhibition at 1 ug/ml after 7 days; type: functional; conditions: 168 h
# Amaranthus retroflexus [22] = test: Post-emergence herbicidal activity against one-leaf stage Amaranthus retroflexus under greenhouse condition at 600 g /ha measured after 24 days by spray method; type: functional; conditions: 576 h, read-out: GI
# Amaranthus retroflexus [23] = test: Post-emergence herbicidal activity against one-leaf stage Amaranthus retroflexus under greenhouse condition assessed as complete bleaching of leaves at 600 g /ha measured after 24 days by spray method; type: functional, organism-based
# [24] = tested on: Brassica rapa subsp. oleifera; test: Post-emergence herbicidal activity against one-leaf stage Brassica rapa subsp. oleifera under greenhouse condition at 15 g /ha measured after 24 days by spray method; type: functional; conditions: 576 h, read-out: GI
# [25] = tested on: Brassica rapa subsp. oleifera; test: Post-emergence herbicidal activity against one-leaf stage Brassica rapa subsp. oleifera under greenhouse condition assessed as complete bleaching of leaves at 600 g /ha measured after 24 days by spray method; type: functional, organism-based
# Amaranthus retroflexus [26] = test: Post-emergence herbicidal activity against one-leaf stage Amaranthus retroflexus under greenhouse condition assessed as complete bleaching of leaves at 150 g /ha measured after 24 days by spray method; type: functional, organism-based
# [27] = tested on: Brassica rapa subsp. oleifera; test: Post-emergence herbicidal activity against one-leaf stage Brassica rapa subsp. oleifera under greenhouse condition at 60 g /ha measured after 24 days by spray method; type: functional; conditions: 576 h, read-out: GI
# Amaranthus retroflexus [28] = test: Post-emergence herbicidal activity against one-leaf stage Amaranthus retroflexus under greenhouse condition at 15 g /ha measured after 24 days by spray method; type: functional; conditions: 576 h, read-out: GI
# Echinochloa crus-galli [29] = test: Pre-emergence herbicidal activity against Echinochloa crus-galli (barnyard grass) under greenhouse condition at 750 g /ha measured after 24 days by spray method; type: functional; conditions: 576 h, read-out: GI
# Amaranthus retroflexus [30] = test: Post-emergence herbicidal activity against one-leaf stage Amaranthus retroflexus under greenhouse condition at 150 g /ha measured after 24 days by spray method; type: functional; conditions: 576 h, read-out: GI
# [31] = tested on: Brassica rapa subsp. oleifera; test: Post-emergence herbicidal activity against one-leaf stage Brassica rapa subsp. oleifera under greenhouse condition assessed as complete bleaching of leaves at 60 g /ha measured after 24 days by spray method; type: functional, organism-based
# Amaranthus retroflexus [32] = test: Post-emergence herbicidal activity against one-leaf stage Amaranthus retroflexus under greenhouse condition assessed as complete bleaching of leaves at 30 g /ha measured after 24 days by spray method; type: functional, organism-based
# [33] = tested on: Brassica rapa subsp. oleifera; test: Post-emergence herbicidal activity against one-leaf stage Brassica rapa subsp. oleifera under greenhouse condition assessed as complete bleaching of leaves at 75 g /ha measured after 24 days by spray method; type: functional, organism-based
# [34] = tested on: Brassica rapa subsp. oleifera; test: Post-emergence herbicidal activity against one-leaf stage Brassica rapa subsp. oleifera under greenhouse condition at 150 g /ha measured after 24 days by spray method; type: functional; conditions: 576 h, read-out: GI
# [35] = tested on: Brassica rapa subsp. oleifera; test: Post-emergence herbicidal activity against one-leaf stage Brassica rapa subsp. oleifera under greenhouse condition assessed as complete bleaching of leaves at 300 g /ha measured after 24 days by spray method; type: functional, organism-based
# [36] = tested on: Brassica rapa subsp. oleifera; test: Post-emergence herbicidal activity against one-leaf stage Brassica rapa subsp. oleifera under greenhouse condition at 30 g /ha measured after 24 days by spray method; type: functional; conditions: 576 h, read-out: GI
# Amaranthus retroflexus [37] = test: Post-emergence herbicidal activity against one-leaf stage of Amaranthus retroflexus under greenhouse condition at 750 g /ha measured after 24 days by spray method; type: functional; conditions: 576 h, read-out: GI
# Spirodela polyrhiza [38] = test: Bleaching herbicidal activity in Spirodela polyrhiza fronds cultured in compound-containing in medium assessed as chlorophyll inhibition at 10 ug/ml after 7 days; type: functional; conditions: 168 h
# [39] = tested on: Brassica rapa subsp. oleifera; test: Post-emergence herbicidal activity against one-leaf stage Brassica rapa subsp. oleifera under greenhouse condition at 300 g /ha measured after 24 days by spray method; type: functional; conditions: 576 h, read-out: GI
# Amaranthus retroflexus [40] = test: Post-emergence herbicidal activity against one-leaf stage Amaranthus retroflexus under greenhouse condition assessed as complete bleaching of leaves at 60 g /ha measured after 24 days by spray method; type: functional, organism-based
# Amaranthus retroflexus [41] = test: Post-emergence herbicidal activity against one-leaf stage Amaranthus retroflexus under greenhouse condition at 7.5 g /ha measured after 24 days by spray method; type: functional; conditions: 576 h, read-out: GI
# [42] = tested on: Brassica rapa subsp. oleifera; test: Post-emergence herbicidal activity against one-leaf stage Brassica rapa subsp. oleifera under greenhouse condition assessed as complete bleaching of leaves at 7.5 g /ha measured after 24 days by spray method; type: functional, organism-based
smiles,measurement,setting,value
Cc1cc(-c2cccc(C(F)(F)F)c2)c(Oc2ccc(C#N)cc2)nn1,Activity,Amaranthus retroflexus [1],Active
same,inhibition of growth at 30 g/ha,Amaranthus retroflexus [2],38%
same,inhibition of growth at 60 g/ha,Amaranthus retroflexus [3],42%
same,inhibition of growth at 750 g/ha,[4],96%
same,inhibition of growth at 7.5 g/ha,[5],41%
same,Activity,Amaranthus retroflexus [6],Active
same,inhibition of growth at 750 g/ha,[7],100%
same,inhibition of growth at 300 g/ha,Amaranthus retroflexus [8],100%
same,inhibition of growth at 75 g/ha,[9],90%
same,Activity,[10],Active
same,inhibition of growth at 750 g/ha,Digitaria [11],99%
same,inhibition of growth at 600 g/ha,[12],99%
same,Activity,Amaranthus retroflexus [13],Active
same,Activity,Amaranthus retroflexus [14],Active
same,inhibition of growth at 750 g/ha,Digitaria [15],99%
same,inhibition of growth at 750 g/ha,Amaranthus retroflexus [16],99%
same,Activity,[17],Active
same,Activity,[18],Active
same,inhibition of growth at 750 g/ha,Echinochloa crus-galli [19],83%
same,inhibition of growth at 75 g/ha,Amaranthus retroflexus [20],99%
same,inhibition at 1 µg/mL,Spirodela polyrhiza [21],87%
same,inhibition of growth at 600 g/ha,Amaranthus retroflexus [22],100%
same,Activity,Amaranthus retroflexus [23],Active
same,inhibition of growth at 15 g/ha,[24],47%
same,Activity,[25],Active
same,Activity,Amaranthus retroflexus [26],Active
same,inhibition of growth at 60 g/ha,[27],89%
same,inhibition of growth at 15 g/ha,Amaranthus retroflexus [28],37%
same,inhibition of growth at 750 g/ha,Echinochloa crus-galli [29],91%
same,inhibition of growth at 150 g/ha,Amaranthus retroflexus [30],100%
same,Activity,[31],Active
same,Activity,Amaranthus retroflexus [32],Active
same,Activity,[33],Active
same,inhibition of growth at 150 g/ha,[34],95%
same,Activity,[35],Active
same,inhibition of growth at 30 g/ha,[36],57%
same,inhibition of growth at 750 g/ha,Amaranthus retroflexus [37],100%
same,inhibition at 10 µg/mL,Spirodela polyrhiza [38],93%
same,inhibition of growth at 300 g/ha,[39],98%
same,Activity,Amaranthus retroflexus [40],Active
same,inhibition of growth at 7.5 g/ha,Amaranthus retroflexus [41],34%
same,Activity,[42],Active
Cc1cc(-c2cccc(C(F)(F)F)c2)c(Oc2ccc(Br)cc2)nn1,Activity,Amaranthus retroflexus [1],Active
same,inhibition of growth at 30 g/ha,Amaranthus retroflexus [2],35%
same,inhibition of growth at 60 g/ha,Amaranthus retroflexus [3],51%
same,inhibition of growth at 750 g/ha,[4],94%
same,inhibition of growth at 7.5 g/ha,[5],68%
same,Activity,Amaranthus retroflexus [6],Active
same,inhibition of growth at 750 g/ha,[7],61%
same,inhibition of growth at 300 g/ha,Amaranthus retroflexus [8],100%
same,inhibition of growth at 75 g/ha,[9],100%
same,Activity,[10],Active
same,inhibition of growth at 750 g/ha,Digitaria [11],93%
same,inhibition of growth at 600 g/ha,[12],100%
same,Activity,Amaranthus retroflexus [13],Active
same,Activity,Amaranthus retroflexus [14],Active
same,inhibition of growth at 750 g/ha,Digitaria [15],64%
same,inhibition of growth at 750 g/ha,Amaranthus retroflexus [16],94%
same,Activity,[17],Active
same,Activity,[18],Active
same,inhibition of growth at 750 g/ha,Echinochloa crus-galli [19],60%
same,inhibition of growth at 75 g/ha,Amaranthus retroflexus [20],88%
same,inhibition at 1 µg/mL,Spirodela polyrhiza [21],80%
same,inhibition of growth at 600 g/ha,Amaranthus retroflexus [22],100%
same,Activity,Amaranthus retroflexus [23],Active
same,inhibition of growth at 15 g/ha,[24],94%
same,Activity,[25],Active
same,Activity,Amaranthus retroflexus [26],Active
same,inhibition of growth at 60 g/ha,[27],100%
same,inhibition of growth at 15 g/ha,Amaranthus retroflexus [28],28%
same,inhibition of growth at 750 g/ha,Echinochloa crus-galli [29],60%
same,inhibition of growth at 150 g/ha,Amaranthus retroflexus [30],100%
same,Activity,[31],Active
same,Activity,Amaranthus retroflexus [32],Active
same,Activity,[33],Active
same,inhibition of growth at 150 g/ha,[34],100%
same,Activity,[35],Active
same,inhibition of growth at 30 g/ha,[36],100%
same,inhibition of growth at 750 g/ha,Amaranthus retroflexus [37],100%
same,inhibition at 10 µg/mL,Spirodela polyrhiza [38],90%
same,inhibition of growth at 300 g/ha,[39],100%
same,Activity,Amaranthus retroflexus [40],Active
same,inhibition of growth at 7.5 g/ha,Amaranthus retroflexus [41],25%
same,Activity,[42],Active
